Assay results from patent publication US20250059214A1, “AMIDE-CONTAINING LONP1 INHIBITOR COMPOUNDS, USES AND METHODS” (Pretzel Therapeutics, Inc., priority 2021, published 2025).
pIC50: −log10 of the molar value.

Target: LONP1 (NM_004793.4) (Homo sapiens (Human), UniProt P36776)
Assay: FRET-based assay for LONP1 protease activity using fluorogenic peptide substrate
Assay type: biochemical
Details: LONP1 15 nM as monomer, substrate 3 μM, 1 hour at 37° C., 15 min pre-incubation with compound; average of a minimum of two repeats
Protocol: Inhibition of LONP1 protease activity by an inhibitor compound of the disclosure elicits a decrease in the fluorescent signal.
The LONP1-containing mix (10 μL) was incubated with the test compound for 15 min at 37° C. before adding the peptide-containing mix (5 μL). Solutions were dispensed using a small cassette-Multidrop Combi (Thermo Scientific).
Each value is based on an average of a minimum of two repeats.

LONP1 (NM_004793.4), sequence (P36776 68-959): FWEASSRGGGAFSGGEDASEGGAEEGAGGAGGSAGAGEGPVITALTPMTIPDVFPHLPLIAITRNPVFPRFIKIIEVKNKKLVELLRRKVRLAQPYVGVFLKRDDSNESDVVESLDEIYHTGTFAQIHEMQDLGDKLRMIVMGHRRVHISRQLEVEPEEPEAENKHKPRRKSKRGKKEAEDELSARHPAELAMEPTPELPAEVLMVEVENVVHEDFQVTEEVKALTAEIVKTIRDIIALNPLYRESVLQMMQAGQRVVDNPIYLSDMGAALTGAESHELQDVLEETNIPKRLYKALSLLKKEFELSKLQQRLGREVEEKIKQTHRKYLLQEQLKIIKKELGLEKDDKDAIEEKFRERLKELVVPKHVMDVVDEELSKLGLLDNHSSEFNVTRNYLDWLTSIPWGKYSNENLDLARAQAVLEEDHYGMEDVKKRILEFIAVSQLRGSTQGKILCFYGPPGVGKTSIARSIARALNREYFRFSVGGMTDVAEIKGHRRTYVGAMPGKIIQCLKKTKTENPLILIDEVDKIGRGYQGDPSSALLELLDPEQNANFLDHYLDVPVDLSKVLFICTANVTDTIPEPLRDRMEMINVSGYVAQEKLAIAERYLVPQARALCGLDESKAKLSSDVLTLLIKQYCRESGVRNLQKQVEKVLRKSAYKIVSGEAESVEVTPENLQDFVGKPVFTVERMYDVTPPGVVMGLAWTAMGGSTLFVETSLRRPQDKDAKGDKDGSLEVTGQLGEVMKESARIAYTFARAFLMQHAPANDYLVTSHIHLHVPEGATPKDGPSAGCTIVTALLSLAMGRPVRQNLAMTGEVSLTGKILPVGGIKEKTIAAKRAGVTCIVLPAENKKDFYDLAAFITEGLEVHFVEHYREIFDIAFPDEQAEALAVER

| Compound | pIC50 |
| --- | --- |
| O=C(N[C@@H](CCCc1ccccc1)B(O)O)[C@@H](CC(=O)N1CCOCC1)NC(=O)N1CC[C@H](O)C1 [Compound 45, ((R)-1-((R)-2-((S)-3-hydroxypyrrolidine-1-carboxamido)-4-morpholino-4-oxobutanamido)-4-phenylbutyl)boronic acid] | 6.30 to 7.30 |
| O=C(N[C@H](CC(=O)N1CCOCC1)C(=O)N[C@@H](CCCc1ccccc1)B(O)O)O[C@@H]1CCOC1 [Compound 36, ((R)-1-((R)-4-morpholino-4-oxo-2-(((((R)-tetrahydrofuran-3-yl)oxy)carbonyl)amino)butanamido)-4-phenylbutyl)boronic acid] | > 7.30 |
| O=C(N[C@@H](CCCc1ccccc1)B(O)O)[C@@H](CC(=O)N1CCOCC1)NCCc1ccccc1 [Compound 40, ((R)-1-((R)-4-morpholino-4-oxo-2-(phenethylamino)butanamido)-4-phenylbutyl)boronic acid] | 6.30 to 7.30 |
| CC(C)C[C@H](NC(=O)[C@@H](CC(=O)N1CCOCC1)NC(=O)c1cnccn1)B(O)O [Compound 3, ((R)-3-methyl-1-((R)-4-morpholino-4-oxo-2-(pyrazine-2-carboxamido)butanamido)butyl)boronic acid] | 6.30 to 7.30 |
| CC[C@H](NC(=O)[C@@H](CC(=O)N1CCOCC1)NC(=O)c1cnccn1)B(O)O [Compound 19, ((R)-1-((R)-4-morpholino-4-oxo-2-(pyrazine-2-carboxamido)butanamido)propyl)boronic acid] | 6.30 to 7.30 |
| O=C(N[C@@H](CCCc1ccccc1)B(O)O)[C@@H](CC(=O)N1CCOCC1)NC(=O)N1CC[C@@H](O)C1 [Compound 44, ((R)-1-((R)-2-((R)-3-hydroxypyrrolidine-1-carboxamido)-4-morpholino-4-oxobutanamido)-4-phenylbutyl)boronic acid] | 6.30 to 7.30 |
| O=C(N[C@H](CC(=O)N1CCOCC1)C(=O)N[C@H]1CCOB1O)c1cnccn1 [Compound 47, N—((R)-1-(((R)-2-hydroxy-1,2-oxaborolan-3-yl)amino)-4-morpholino-1,4-dioxobutan-2-yl)pyrazine-2-carboxamide] | < 5.30 |
| O=C(N[C@@H](CCCc1ccccc1)B(O)O)[C@@H](CC(=O)N1CCOCC1)NS(=O)(=O)c1cnccn1 [Compound 39, ((R)-1-((R)-4-morpholino-4-oxo-2-(pyrazine-2-sulfonamido)butanamido)-4-phenylbutyl)boronic acid] | 6.30 to 7.30 |
| O=C(N[C@H](CC(=O)N1CCOCC1)C(=O)N[C@@H](Cc1ccccc1)B(O)O)c1cnccn1 [Compound 28, ((R)-1-((R)-4-morpholino-4-oxo-2-(pyrazine-2-carboxamido)butanamido)-2-phenylethyl) boronic acid] | 5.30 to 6.30 |
| CC(C)NC(=O)N[C@H](CC(=O)N1CCOCC1)C(=O)N[C@@H](CCCc1ccccc1)B(O)O [Compound 38, ((R)-1-((R)-2-(3-isopropylureido)-4-morpholino-4-oxobutanamido)-4-phenylbutyl)boronic acid] | 6.30 to 7.30 |
| O=C(N[C@H](CC(=O)N1CCOCC1)C(=O)N[C@@H](CCc1ccccc1)B(O)O)c1cnccn1 [Compound 4, ((R)-1-((R)-4-morpholino-4-oxo-2-(pyrazine-2-carboxamido)butanamido)-3-phenylpropyl)boronic acid] | 6.30 to 7.30 |
| O=C(N[C@H](CC(=O)N1CCOCC1)C(=O)N[C@@H](CCCc1ccccc1)B(O)O)O[C@H]1CCOC1 [Compound 32, ((R)-1-((R)-4-morpholino-4-oxo-2-(((((S)tetrahydrofuran-3-yl)oxy)carbonyl)amino)butanamido)-4-phenylbutyl)boronic acid] | > 7.30 |
| O=C(N[C@@H](CCCc1ccccc1)B(O)O)[C@@H](CC(=O)N1CCOCC1)NC(=O)[C@H]1CCCCO1 [Compound 48, ((R)-1-((R)-4-morpholino-4-oxo-2-((R)-tetrahydro-2H-pyran-2-carboxamido)butanamido)-4-phenylbutyl)boronic acid] | 6.30 to 7.30 |
| O=C(N[C@@H](CCCc1ccccc1)B(O)O)[C@H](CC(=O)N1CCOCC1)NS(=O)(=O)c1ccccc1 [Compound 33, ((R)-1-((S)-4-morpholino-4-oxo-2-(phenylsulfonamido)butanamido)-4-phenylbutyl)boronic acid] | > 7.30 |
| CC(=O)N[C@H](CC(=O)N1CCOCC1)C(=O)N[C@@H](CCCc1ccccc1)B(O)O [Compound 11] | 6.30 to 7.30 |
| O=C(N[C@@H](CCCc1ccccc1)B(O)O)[C@@H](CC(=O)N1CCOCC1)NS(=O)(=O)c1ccccc1Cl [Compound 30, ((R)-1-((R)-2-((2-chlorophenyl)sulfonamido)-4-morpholino-4-oxobutanamido)-4-phenylbutyl)boronic acid] | 6.30 to 7.30 |

| Compound | pIC50 |
| --- | --- |
| O=C(N[C@@H](CCCc1ccccc1)B(O)O)[C@@H](CC(=O)N1CCOCC1)NS(=O)(=O)c1cccc(Cl)c1 [Compound 29, ((R)-1-((R)-2-((3-chlorophenyl)sulfonamido)-4-morpholino-4-oxobutanamido)-4-phenylbutyl)boronic acid] | > 7.30 |
| CC(C)(C)OC(=O)N(Cc1ccccc1)[C@H](CC(=O)N1CCOCC1)C(=O)N[C@@H](CCCc1ccccc1)B(O)O [Compound 34, ((R)-1-((R)-2-(benzyl(tert-butoxycarbonyl)amino)-4-morpholino-4-oxobutanamido)-4-phenylbutyl)boronic acid] | 5.30 to 6.30 |
| O=C(N[C@H](CC(=O)N1CCOCC1)C(=O)N[C@@H](CCCc1ccccc1)B(O)O)[C@@H]1CCCCO1 [Compound 49, ((R)-1-((R)-4-morpholino-4-oxo-2-((S)-tetrahydro-2H-pyran-2-carboxamido)butanamido)-4-phenylbutyl)boronic acid] | 6.30 to 7.30 |
| CC(C)(C)OC(=O)N(CCc1ccccc1)[C@H](CC(=O)N1CCOCC1)C(=O)N[C@@H](CCCc1ccccc1)B(O)O [Compound 41, ((R)-1-((R)-2-((tert-butoxycarbonyl)(phenethyl)amino)-4-morpholino-4-oxobutanamido)-4-phenylbutyl)boronic acid] | 5.30 to 6.30 |
| CCC[C@H](NC(=O)[C@@H](CC(=O)N1CCOCC1)NC(=O)c1cnccn1)B(O)O [Compound 18, ((R)-1-((R)-4-morpholino-4-oxo-2-(pyrazine-2-carboxamido)butanamido)butyl)boronic acid] | 6.30 to 7.30 |
| O=C(N[C@@H](CCCc1ccccc1)B(O)O)[C@@H](CC(=O)N1CCOCC1)NCc1ccccc1 [Compound 31] | 6.30 to 7.30 |
| CN(C)C(=O)N[C@H](CC(=O)N1CCOCC1)C(=O)N[C@@H](CCCc1ccccc1)B(O)O [Compound 20] | 6.30 to 7.30 |
| Cc1nc(C)c(C(=O)N[C@H](CC(=O)N2CCOCC2)C(=O)N[C@@H](CC(C)C)B(O)O)o1 [Compound 6, ((R)-1-((R)-2-(2,4-dimethyloxazole-5-carboxamido)-4-morpholino-4-oxobutanamido)-3-methylbutyl)boronic acid] | 6.30 to 7.30 |
| CCCC[C@H](NC(=O)[C@@H](CC(=O)N1CCOCC1)NC(=O)c1cnccn1)B(O)O [Compound 5, ((R)-1-((R)-4-morpholino-4-oxo-2-(pyrazine-2-carboxamido)butanamido)pentyl)boronic acid] | 6.30 to 7.30 |
| O=C(N[C@@H](CCCc1ccccc1)B(O)O)[C@@H](CC(=O)N1CCOCC1)NS(=O)(=O)c1cc(Cl)ccc1Cl [Compound 37, ((R)-1-((R)-2-((2,5-dichlorophenyl)sulfonamido)-4-morpholino-4-oxobutanamido)-4-phenylbutyl)boronic acid] | > 7.30 |
| O=C(N[C@H](CC(=O)N1CCOCC1)C(=O)N[C@@H](CCCc1ccccc1)B(O)O)C1CCOCC1 [Compound 23, ((R)-1-((R)-4-morpholino-4-oxo-2-(tetrahydro-2H-pyran-4-carboxamido)butanamido)-4-phenylbutyl)boronic acid] | > 7.30 |
| O=C(N[C@H](CC(=O)N1CCOCC1)C(=O)N[C@@H](CCCc1ccccc1)B(O)O)c1cc(Cl)ccc1Cl [Compound 35, ((R)-1-((R)-2-(2,5-dichlorobenzamido)-4-morpholino-4-oxobutanamido)-4-phenylbutyl)boronic acid] | > 7.30 |
| CNC(=O)N[C@H](CC(=O)N1CCOCC1)C(=O)N[C@@H](CCCc1ccccc1)B(O)O [Compound 43, ((R)-1-((R)-2-(3-methylureido)-4-morpholino-4-oxobutanamido)-4-phenylbutyl)boronic acid] | 6.30 to 7.30 |
| O=C(N[C@@H](CCCc1ccccc1)B(O)O)[C@@H](CC(=O)N1CCOCC1)Nc1ccccc1 [Compound 46] | 6.30 to 7.30 |
| O=C(N[C@H](CC(=O)N1CCOCC1)C(=O)N[C@@H](CCCc1ccccc1)B(O)O)C1CCCCC1 [Compound 22, ((R)-1-((R)-2-(cyclohexanecarboxamido)-4-morpholino-4-oxobutanamido)-4-phenylbutyl)boronic acid] | > 7.30 |
| O=C(N[C@@H](CCCc1ccccc1)B(O)O)[C@@H](CC(=O)N1CCOCC1)NC(=O)N1CCCC1 [Compound 42, ((R)-1-((R)-4-morpholino-4-oxo-2-(pyrrolidine-1-carboxamido)butanamido)-4-phenylbutyl)boronic acid] | 6.30 to 7.30 |
